From ChEMBL document CHEMBL5352382, “Synthesis and evaluation of imidazo[1,2-a]pyrazine derivatives as small molecule Gαq/11 inhibitors against uveal melanoma” (Eur J Med Chem, 2022)

Legend:
[1] = biological target: GNAQ/GNA11 (Homo sapiens) (UniProt P50148+P29992); assay: Inhibition of Galphaq/11 (unknown origin) expressed in CHO-M1 cells at 10 uM preincubated for 1 hr followed by carbachol stimulation for 30 mins and measured after 1 hr by IP1 accumulation based HTRF assay relative to control; type: cell-based; details: time 150.0 min
[2] = Antiproliferative activity against human MP41 cells assessed as reduction in cell viability measured after 72 hrs by CCK-8 method; type: functional, cell-based; details: MP41, 72 h
[3] = Antiproliferative activity against human 921 cells assessed as reduction in cell viability measured after 72 hrs by CCK-8 method; type: functional, cell-based; details: Homo sapiens, 921, 72 h
HEK-293T = assay: Cytotoxicity against HEK293T cells assessed as reduction in cell viability at upto 10 uM measured after 72 hrs by CCK-8 method; type: toxicity, cell-based; details: human
BEAS-2B = assay: Cytotoxicity against human BEAS-2B cells assessed as reduction in cell viability at upto 10 uM measured after 72 hrs by CCK-8 method; type: toxicity, cell-based

SMILES | inhibition [1] [%] | IC50 [2] [µM] | IC50 [3] [µM] | Activity (HEK-293T) | Activity (BEAS-2B)
CC[C@H](C)[C@H](N)C(=O)N1CCn2cc(-c3cccc(Cl)c3Cl)nc2[C@@H]1CC1CCCCC1 | 19.9 | 9.2 | 13.8 |  | 
CC[C@H](C)[C@H](N)C(=O)N1CCn2cc(-c3cccc(I)c3)nc2[C@@H]1CC1CCCCC1 | 19.4 | 18.1 | 9.1 |  | 
CC[C@H](C)[C@H](N)C(=O)N1CCn2cc(-c3cccc([N+](=O)[O-])c3)nc2[C@@H]1CC1CCCCC1 | 17.5 | 10.1 | 12.2 |  | 
CC[C@H](C)[C@H](N)C(=O)N1CCn2cc(-c3ccc(Cl)c(C)c3)nc2[C@@H]1CC1CCCCC1 | 7.4 | 5.8 | 8.2 |  | 
CC[C@H](C)[C@H](N)C(=O)N1CCn2cc(-c3cccc(F)c3F)nc2[C@@H]1CC1CCCCC1 | 16.3 | 25.9 | 3.2 |  | 
CC[C@H](C)[C@H](N)C(=O)N1CCn2cc(-c3ccc4c(c3)CCCC4)nc2[C@H]1CC(C)C | 3.6 | 13.9 | 8.3 |  | 
CC[C@H](C)[C@H](N)C(=O)N1CCn2cc(-c3ccc4c(c3)CCCC4)nc2[C@@H]1C(C)C | 9.4 | 19.8 | 13 |  | 
CC[C@H](C)[C@H](N)C(=O)N1CCn2cc(-c3ccc4c(c3)CCCC4)nc2[C@@H]1CC | 11.5 | 30.2 | 22.3 |  | 
CC[C@H](C)[C@H](N)C(=O)N1CCn2cc(-c3cccc(Cl)c3OC)nc2[C@@H]1CC1CCCCC1 | 24.2 | 7.9 | 11.3 |  | 
CC[C@H](C)[C@H](N)C(=O)N1CCn2cc(-c3ccccc3C)nc2[C@@H]1CC1CCCCC1 | 15 | 7.1 | 8.8 |  | 
c1cc2c(cc1-c1cn3c(n1)[C@H](CC1CCCCC1)N(CCNC1CCCC1)CC3)CCCC2 | 10.8 | 9.7 | 6.4 |  | 
CC[C@H](C)[C@H](N)CN1CCn2cc(-c3ccc4c(c3)CCCC4)nc2[C@@H]1CC1CCCCC1 | 11.9 | 17.4 | 4.8 |  | 
CC[C@H](C)[C@H](N)C(=O)N1CCn2cc(-c3cccc(Cl)c3)nc2[C@@H]1CC1CCCCC1 | 26.2 | 11.2 | 10 |  | 
CC[C@H](C)[C@H](N)C(=O)N1CCn2cc(-c3cccc(S(C)(=O)=O)c3)nc2[C@@H]1CC1CCCCC1 | 13 | > 40 | > 40 |  | 
CC[C@H](C)[C@H](N)C(=O)N1CCn2cc(-c3ccccc3)nc2[C@@H]1CC1CCCCC1 | 26.6 | 24.1 | 10.5 |  | 
c1cc2c(cc1-c1cn3c(n1)[C@H](CC1CCCCC1)N(CCN1CCCCC1)CC3)CCCC2 | 6.8 | 12.8 | 6.8 |  | 
CC[C@H](C)[C@H](N)C(=O)N1CCn2cc(-c3cccc(C(=O)OC)c3)nc2[C@@H]1CC1CCCCC1 | 4.1 | 16.2 | 25 |  | 
CC[C@H](C)[C@H](N)C(=O)N1CCn2cc(-c3cc(Cl)ccc3Cl)nc2[C@@H]1CC1CCCCC1 | 10.2 | 11 | 6.8 |  | 
CC[C@H](C)[C@H](N)C(=O)N1CCn2cc(-c3ccc4c(c3)CCCC4)nc2[C@@H]1C1CCCCC1 | 10.4 | 8.4 | 9.3 |  | 
CC[C@H](C)[C@H](N)C(=O)N1CCn2cc(-c3ccc4c(c3)CCCC4)nc2[C@H]1C(C)C | 10.3 | 21.4 | 11.6 |  | 
N[C@H](CN1CCn2cc(-c3ccc4c(c3)CCCC4)nc2[C@@H]1CC1CCCCC1)C1CCCCC1 | 12.2 | 5.9 | 4.1 | Toxic | Toxic
CC[C@H](C)[C@H](N)C(=O)N1CCn2cc(-c3ccc(Cl)c(Cl)c3)nc2[C@@H]1CC1CCCCC1 | 13.2 | 9.9 | 6.6 |  | 
CC[C@H](C)[C@H](N)C(=O)N1CCn2cc(-c3ccc(Cl)cc3)nc2[C@@H]1CC1CCCCC1 | 26.5 | 10.1 | 9.4 |  | 

SMILES | inhibition [1] [%] | IC50 [2] [µM] | IC50 [3] [µM] | Activity (HEK-293T) | Activity (BEAS-2B)
CCC[C@H](N)CN1CCn2cc(-c3ccc4c(c3)CCCC4)nc2[C@@H]1CC1CCCCC1 | 15.9 | 9 | 2.8 |  | 
CC[C@H](C)[C@H](N)C(=O)N1CCn2cc(-c3ccc4c(c3)OCO4)nc2[C@@H]1CC1CCCCC1 | 20.2 | 12.8 | 18.5 |  | 
CC[C@H](C)[C@H](N)C(=O)N1CCn2cc(-c3ccc4ccccc4c3)nc2[C@@H]1CC1CCCCC1 | 13.1 | 15.5 | 18.8 |  | 
CC[C@H](C)[C@H](N)C(=O)N1CCn2cc(-c3ccc(C)cc3)nc2[C@@H]1CC1CCCCC1 | 31.9 | 10.9 | 9.7 |  | 
CC(C)C[C@H](N)CN1CCn2cc(-c3ccc4c(c3)CCCC4)nc2[C@@H]1CC1CCCCC1 | 15.7 | 7.5 | 3.1 | Toxic | Toxic
CC[C@H](C)[C@H](N)C(=O)N1CCn2cc(-c3cc(F)cc(Cl)c3)nc2[C@@H]1CC1CCCCC1 | 16.8 | 10.9 | 12.9 |  | 
CN1CCN(CCN2CCn3cc(-c4ccc5c(c4)CCCC5)nc3[C@@H]2CC2CCCCC2)CC1 | 8.9 | 11 | 6.5 |  | 
CC[C@H](C)[C@H](N)C(=O)N1CCn2cc(-c3ccccc3Cl)nc2[C@@H]1CC1CCCCC1 | 24.4 | 11.6 | 7.9 |  | 
CC(C)(C)NCCN1CCn2cc(-c3ccc4c(c3)CCCC4)nc2[C@@H]1CC1CCCCC1 | 6.9 | 8.7 | 5.2 |  | 
CC[C@H](C)[C@H](N)C(=O)N1CCn2cc(-c3cc(Cl)cc(Cl)c3)nc2[C@@H]1CC1CCCCC1 | 12.8 | 10.9 | 10.1 |  | 
CCC[C@H]1c2nc(-c3ccc4c(c3)CCCC4)cn2CCN1C(=O)[C@@H](N)[C@@H](C)CC | 5.2 | 18.4 | 12.6 |  | 
CN(C)CCN1CCn2cc(-c3ccc4c(c3)CCCC4)nc2[C@@H]1CC1CCCCC1 | 17.1 | 9.3 | 4.9 |  | 
CC[C@H](C)[C@H](N)C(=O)N1CCn2cc(-c3cccc(Br)c3)nc2[C@@H]1CC1CCCCC1 | 21.9 | 10.6 | 8.4 |  | 
CC[C@H](C)[C@H](N)C(=O)N1CCn2cc(-c3cccc(C#N)c3)nc2[C@@H]1CC1CCCCC1 | 20.8 | 9.9 | 34.5 |  | 
CC[C@H](C)[C@H](N)C(=O)N1CCn2cc(-c3cccc(C(=O)O)c3)nc2[C@@H]1CC1CCCCC1 | 8.5 | > 40 | > 40 |  | 
CC[C@H](C)[C@H](N)C(=O)N1CCn2cc(-c3cccc(C)c3)nc2[C@@H]1CC1CCCCC1 | 29.5 | 6.2 | 24.3 |  | 
CN1CCC[C@H]1CN1CCn2cc(-c3ccc4c(c3)CCCC4)nc2[C@@H]1CC1CCCCC1 | 19 | 15.2 | 5 |  | 
CC[C@H](C)[C@H](N)C(=O)N1CCn2cc(-c3cccc(F)c3)nc2[C@@H]1CC1CCCCC1 | 17.8 | 19.8 | 5 |  | 
CC[C@H](C)[C@H](N)C(=O)N1CCn2cc(-c3cc(Cl)c(Cl)c(Cl)c3)nc2[C@@H]1CC1CCCCC1 | 13.2 | 7.8 | 5.9 |  | 
CC[C@H](C)[C@H](N)C(=O)N1CCn2cc(-c3cccc(C)c3C)nc2[C@@H]1CC1CCCCC1 | 13.7 | 12.8 | 7 |  | 
CC[C@H](C)[C@H](N)C(=O)N1CCn2cc(-c3cccc(N)c3)nc2[C@@H]1CC1CCCCC1 | 10.8 | > 40 | > 40 |  | 
CC[C@H](C)[C@H](N)C(=O)N1CCn2cc(-c3cccc(OC(F)(F)F)c3)nc2[C@@H]1CC1CCCCC1 | 12.4 | > 40 | > 40 |  | 
